From the Deep4Chem optical property database come the findings set out here.

Where “and” joins values, the source holds several entries; their conditions need not be identical. Identical values can stand only once.

The series in a line: solvent given as SMILES.

`CCCCCCCCCCCCC1(CCCCCCCCCCCC)c2cc(-c3ccc(C=C4C(=O)c5ccccc5C4=O)cc3)ccc2-c2ccc(-c3ccc(C=C4C(=O)c5ccccc5C4=O)cc3)cc21`: the absorption maximum runs as follows: (in C1CCOC1) 433 nm; (in CC(C)=O) 429 nm; (in CCCCCC) 419 nm; (in CS(C)=O) 437 nm; (in Cc1ccccc1) 429 nm; (in ClC(Cl)Cl) 438 nm.
As for `CCN(CC)c1ccc(C=Cc2nc3nc4ccccc4nc3s2)cc1`, the absorption maximum (in CO) is given as 490 nm.
Regarding `CCCCCCCCCCCCOc1cc(/C=C/c2ccc3c(c2)C(CC)(CC)c2cc(N4c5ccccc5Sc5ccccc54)ccc2-3)c(OCCCCCCCCCCCC)cc1/C=C/c1ccc2c(c1)C(CC)(CC)c1cc(N3c4ccccc4Sc4ccccc43)ccc1-2`, the absorption maximum runs as follows: (in C1CCOC1) 442.41 nm; (in CC#N) 436.72 nm; (in CCCCCC) 436.38 nm; (in Cc1ccccc1) 442.93 nm; (in ClCCl) 420 nm.
On to `C1=Cc2nc1c(-c1cccs1)c1ccc([nH]1)c(-c1cccs1)c1nc(c(-c3cccs3)c3ccc([nH]3)c2-c2cccs2)C=C1`, for which the absorption maximum worked out at 661 nm (in CN(C)C=O) and 426 nm (in ClCCl).
`CCC(C)(C)c1ccc(-c2ccc(-c3ccccc3)cc2)cc1`: the absorption maximum (in C1COCCO1) is 287 nm.
The compound `COCCOCCOCCOCC(COCCOCCOCCOC)Oc1cc(/C=C/c2ccc(C=C(C#N)C#N)cc2)c(OC(COCCOCCOCCOC)COCCOCCOCCOC)cc1/C=C/c1ccc(C=C(C#N)C#N)cc1` yielded an absorption maximum (in ClCCl) of 465 nm.
Consider `CCOC(=O)CC[N+]1=c2cc3c(cc2CCC1)=Cc1c(c2ccc(N(C)C)cc2oc1=O)O3`, for which the absorption maximum is listed as 593 nm (in CC#N), 591 nm (in CO), 606 nm (in ClCCl) and 587 nm (in O).
`Cc1ccc2[nH]c(-c3ccc(-c4ccc(-c5ccc(-c6nc7cc(C)ccc7[nH]6)cc5)c(F)c4)cc3)nc2c1`: the absorption maximum (in CN(C)C=O) was 344 nm.
`CCOC(=O)C1=C(C(=O)OC)N2CCc3cc(OC)c(OC)cc3C2=C[C@H](c2ccc(Cl)cc2)C12c1ccccc1-c1ccccc12` gave an absorption maximum (in ClCCl) of 310 nm.
Where the note is “in CO”, `O=C1C=C(Nc2ccc(F)cc2[N+](=O)[O-])C(=O)c2ccccc21` displayed an absorption maximum of 448 nm.
In the case of `COc1ccc(-n2c3ccccc3c3c(C)cc4ccccc4c32)cc1`, the absorption maximum (in ClCCl) was 303 nm.
With `CC(C)[Si](C#Cc1c2nc3ccccc3nc2c(C#C[Si](C(C)C)(C(C)C)C(C)C)c2nc3c4ccccc4c(=O)c4ccccc4c3nc12)(C(C)C)C(C)C`, under “in ClCCl”, the absorption maximum amounted to 603 nm.
Turning to `CC(C)c1cc(C(C)C)c(B2c3ccccc3Oc3cc(-n4c5ccccc5c5c6c(c7ccccc7n6-c6ccccc6)c6c(c7ccccc7n6-c6ccccc6)c54)ccc32)c(C(C)C)c1`, the absorption maximum (in Cc1ccccc1) is listed as 458 nm.
In turn, `c1ccc2c(c1)-c1ccccc1C21c2ccccc2-c2sc3c(c21)C1(c2ccccc2-c2ccccc21)c1ccccc1-3` gave an absorption maximum (in C1CCOC1) of 373 nm.
`CCc1ccc(/C=C/c2ccc(-c3nnc(-c4ccc(-c5cc6ccccc6s5)cc4)o3)cc2)cc1`: the absorption maximum by setting is: (in CC#N) 342 nm; (in CC(C)=O) 347 nm; (in CCCCCCCC) 341 nm; (in CCCCCCCCCCO) 357 nm; (in CCCCCCCCO) 357 nm; (in CCCCCO) 354 nm. For the same compound, the absorption maximum reads like this: (in CCCO) 347 nm; (in CN(C)C=O) 355 nm; (in CO) 326 nm; (in CS(C)=O) 350 nm.
With `O=c1oc2cc3ccccc3cc2nc1-c1ccccc1`, the absorption maximum was found to be 348 nm (in CC#N), 350 nm (in CCCCCC), 346 nm (in CO) and 356 nm (in c1ccccc1).
As for `N#Cc1c(N2CCCCC2)cc(-c2ccc3ccccc3c2)c2c1C(=O)c1ccccc1-2`, the absorption maximum (in C1CCOC1) was found to be 346 nm.
`CC(=O)Nc1ccc(C2=N/C(=C\c3ccc(C#N)cc3)C(=O)O2)cc1`: the absorption maximum (in C1COCCO1) is given as 389 nm.
For the setting “in ClC(Cl)Cl”, `F[B-]1(F)n2c(cc3sc4ccccc4c32)C(c2ccc(I)cc2)=C2C=c3sc4ccccc4c3=[N+]21` displayed an absorption maximum of 658 nm.
Turning to `CC(C)(C)NC1=C2C=CC=[N+]2[B-](F)(F)n2cccc21`, the absorption maximum is, setting by setting: (in C1CCCCC1) 428 nm; (in CC(C)=O) 409.5 nm; (in CCO) 412.5 nm; (in CCOC(C)=O) 412 nm; (in CO) 410 nm; (in OCC(F)(F)F) 406 nm.
As to `CCCCCCCCCCCCN1C(=O)c2c(c3ccc4cc(-c5ccc(C(F)(F)F)cc5)c(OC)cc4c3c3c2ccc2cc(-c4ccc(C(F)(F)F)cc4)c(OC)cc23)C1=O`, the absorption maximum (in ClCCl) came out at 427 nm.
With `N#Cc1ccc(C2=Cc3ccccc3P2(=O)c2ccccc2)cc1` (stereo unspecified), for the setting “in ClCCl”, the absorption maximum turned out to be 350 nm.
As for `O=C1c2ccccc2-c2c(-c3cc(Br)ccc3O)[nH]c(=O)n21`, the absorption maximum (in CC#N) was 390 nm, the absorption maximum (in CO) is 400 nm and the absorption maximum (in ClCCl) turned out to be 396 nm.
As for `CN(C)c1ccc2nc(-c3ccc(C(=O)Nc4ccccc4)cc3)sc2c1`, the absorption maximum reads like this: (in C1CCCCC1) 387 nm and 384 nm; (in CC#N) 388 nm; (in CC(C)O) 389 nm; (in CO) 389 nm; (in CS(C)=O) 396 nm; (in ClC(Cl)Cl) 383 nm. Also, the absorption maximum (in c1ccccc1) amounted to 392 nm.
Take `Cc1ccc(C)c(C2=C3C=CC(=[N+](C)C)C=C3[Si](C)(C)c3cc(N(C)C)ccc32)c1`: for the setting “in O”, the absorption maximum is given as 646 nm.
Take `CN(C)c1ccc(C#Cc2ccc3c(N(C)C)cc(-c4ccccc4)cc3c2)cc1`: the absorption maximum is reported as 342.13 nm (in CC#N), 335.73 nm (in CCO) and 341 nm (in ClCCl).
For the setting “in C1COCCO1”, `CCC1=C(C2=C(C3=C(CC)S(=O)(=O)c4ccccc43)C(F)(F)C(F)(F)C2(F)F)c2ccccc2S1(=O)=O` had an absorption maximum of 310 nm.
Take `CCN(CC)c1cc2oc3cc(O)c(F)cc3c(=O)c2cc1F`: the absorption maximum (in CCO) came to 379 nm.
For the compound `Brc1ccc(-c2nc(-c3ccc(C#Cc4ccc(-n5c6ccccc6c6ccccc65)cc4)cc3)nc(-c3ccc(C#Cc4ccc(-n5c6ccccc6c6ccccc65)cc4)cc3)n2)cc1`, under “in ClCCl”, the absorption maximum stood at 357 nm.
Same read-out and setting: to `CC(C)(C)OC(=O)/C=C/C1=CC2=C(c3ccccc3)c3cccn3[B-](F)(F)[N+]2=C1` belongs 538 nm.
For the compound `CCNc1cc2oc(=O)c3c(=O)oc4ccccc4c3c2cc1C`, the absorption maximum runs as follows: (in CS(C)=O) 454 nm; (in ClCCl) 441 nm.
On to `CN(C)c1ccc(/C=C/c2ccc(-c3nnc(-c4ccc(-c5cc6ccccc6s5)cc4)o3)cc2)cc1`, for which the absorption maximum amounted to 334 nm (in CC#N); 337 nm (in CC(C)=O); 334 nm (in CCCCCCCC); 344 nm (in CCCCCCCCCCO); 343 nm (in CCCCCCCCO); 341 nm (in CCCCCO). Also, the absorption maximum is, setting by setting: (in CCCO) 341 nm; (in CN(C)C=O) 338 nm; (in CO) 335 nm; (in CS(C)=O) 340 nm.
In turn, `O=C(c1ccc(-n2c3ccc(-c4ccccc4)cc3c3cc(-c4ccccc4)ccc32)cc1)c1ccc(-n2c3ccc(-c4ccccc4)cc3c3cc(-c4ccccc4)ccc32)cc1` showed an absorption maximum (in Cc1ccccc1) of 370 nm.
As for `O=P(c1ccccc1)(c1ccccc1)n1c2ccccc2c2cc(-n3c4ccccc4c4ccccc43)ccc21`, the absorption maximum (in C1CCOC1) is reported as 340 nm.
Take `CCOC(=O)/N=c1/oc2c(OC)cccc2cc1C#N`: for the setting “in ClCCl”, the absorption maximum is 374 nm.
Take `F[B-]1(F)N(c2ccccc2)C=Cc2cccc[n+]21`: the absorption maximum by setting is: (in C1CCCCC1) 442 nm; (in C1CCOC1) 425 nm; (in CC#N) 412 nm; (in CC(C)=O) 422 nm; (in CCO) 418 nm; (in CCOC(C)=O) 427 nm. Also, the absorption maximum is reported as 417 nm (in CO) and 396 nm (in O).
`CC[Si](C#Cc1c2c(=O)c3ccccc3c2c(C#C[Si](CC)(CC)CC)c2c(=O)c3ccccc3c12)(CC)CC` had an absorption maximum (in ClC(Cl)Cl) of 522 nm.
`Cc1cc(C)c(B(c2ccc(N(c3ccccc3)c3ccccc3)cc2)c2c(C)cc(C)cc2C)c(C)c1` registered an absorption maximum (in Cc1ccccc1) of 380 nm.
In turn, `CSc1sc(C(=O)c2ccccc2)c2nn[nH]c(=O)c12` returned an absorption maximum (in C1CCOC1) of 396.5 nm; an absorption maximum (in CC#N) of 396 nm; an absorption maximum (in CCO) of 400 nm; an absorption maximum (in CN(C)C=O) of 409 nm; an absorption maximum (in CO) of 400 nm; an absorption maximum (in CS(C)=O) of 405.5 nm.
In turn, `C1=C(c2ccccc2)C=C(c2ccccc2)/C1=C/C1CCCCC1` returned an absorption maximum (in C1CCOC1) of 365 nm.
For `CC1=NN(c2ccccc2)C(=O)/C1=C\c1cn(-c2ccccc2)nc1-c1ccc([N+](=O)[O-])cc1`, the absorption maximum came out at 343 nm (in C1CCOC1); 361 nm (in C1COCCO1); 362 nm (in CCO); 359 nm (in CCOC(C)=O); 361 nm (in CN(C)C=O); 360 nm (in CO). For the same compound, the absorption maximum (in CS(C)=O) came out at 364 nm, the absorption maximum (in Cc1ccccc1) came out at 364 nm and the absorption maximum (in ClC(Cl)Cl) was found to be 363 nm.
